Among the data in patent US12509449B2, “Anthelmintic compounds comprising a quinoline structure” (Intervet Inc., priority 2019, dated 2025) are EC50 and minimal effective concentration values, retold here.

Where only a bound is given, the exact number is not on record here.

In assay [1] the target is Caenorhabditis elegans slo-1a (Caenorhabditis elegans, UniProt Q95V25). Kind of assay: Agonistic activity at C. elegans Slo-1a, membrane potential (FLIPR) in transfected CHO K1 cells. To be noted: EC50 agonistic activity at C. elegans Slo-1a, membrane potential dye, 70 mM KCl.
Protocol: A CHO K1 cell line stably transfected with the Caenorhabditis elegans slo-1a (accession no Y51A2D.19a) was established. Cells were seeded in microtiter plates (black 384-well MTP, clear bottom) in a concentration of 10,000 cells/well in 25 μl medium and cultured for 20 to 24 hours at 37° C. and 5% CO2. The cell medium was removed, and the cells washed with Tyrode's solution. 1 of FMP-dye Blue-Tyrode's was added to each well and incubated at room temperature for 30 min.
For the membrane potential measurements, the prepared cell plate and substance plate were placed in the FLIPR Tetra (Molecular Devices). The baseline measurement of the fluorescence was stared for 20 sec (Exc. 510-545 nm, Emm. 565-625 nm). The cells were depolarized by addition of 25p of the diluted test compounds (final assay concentration of the KCl-Tyrode: 70 mM KCl, 2 mM CaCl2), 1 mM MgCl2, 0.8 mM NaH2PO4, 5 mM Glucose, 28 mM Hepes, pH 7.4, including the voltage sensitive dye). The complete measurement takes 150 s.
EC50 values were determined in triplicate utilizing compound dilution series. The data were determined at least in two independent tests. The data were proceeded by using the ActivityBase XE Runner software (IDBS) for curve fitting and calculation of the half-maximal effective concentration.
Assay [2] has as its system Ascaridia galli L3. The experiment in a line: In vitro assay Ascaridia galli larval stage 3, minimum effective concentration. In kind it is cell-based. Conditions: 20 larvae per well, microscopic examination, read-out: MEC (minimum effective concentration) against Ascaridia galli L3. From the text: (§1) […] galli (intestinal roundworm of chicken), larval stage 3 (“L3”); and Oesophagostumum dentatum (nodular worm of swine), larval stages 3 and 4 (respectively “L3” and “L4”) where suspended in a nutrient medium and distributed to 96 well plates with 20 larvae per well. The wells were spiked DMSO solutions of the compounds with declining concentration.

For assay [3], the target named is T1, human Maxi K channel (BK channel), KCNMA1 (KCa1.1) and beta1 (KCNMB1) subunits (Homo sapiens, UniProt Q12791).
T1 construct: expressed in transfected cells; host or cells: CHO K1
The experiment in a line: Agonistic activity at the human Maxi K channel (BK channel), membrane potential (FLIPR) in transfected CHO K1 cells. The assay is classed as cell-based. To be noted: membrane potential dye, 70 mM KCl. The text has this:
A CHO K1 cell line was stably transfected with the KCNMA1 (KCa1.1, U11058) and beta1 (KCNMB1) subunits of the human Maxi K channel (Ponte et al, Molecular Pharmacology 2012, 81(4), 567-577).
The complete measurement takes 150 s.

Assay [4] has as its system Oesophagostumum dentatum L3. The experiment in a line: In vitro assay Oesophagostumum dentatum larval stage 3, minimum effective concentration. In kind it is cell-based. To be noted: 20 larvae per well, microscopic examination; read-out: MEC (minimum effective concentration) against Oesophagostumum dentatum L3.
Text: as §1

Chain of Caenorhabditis elegans slo-1a (Q95V25 whole entry): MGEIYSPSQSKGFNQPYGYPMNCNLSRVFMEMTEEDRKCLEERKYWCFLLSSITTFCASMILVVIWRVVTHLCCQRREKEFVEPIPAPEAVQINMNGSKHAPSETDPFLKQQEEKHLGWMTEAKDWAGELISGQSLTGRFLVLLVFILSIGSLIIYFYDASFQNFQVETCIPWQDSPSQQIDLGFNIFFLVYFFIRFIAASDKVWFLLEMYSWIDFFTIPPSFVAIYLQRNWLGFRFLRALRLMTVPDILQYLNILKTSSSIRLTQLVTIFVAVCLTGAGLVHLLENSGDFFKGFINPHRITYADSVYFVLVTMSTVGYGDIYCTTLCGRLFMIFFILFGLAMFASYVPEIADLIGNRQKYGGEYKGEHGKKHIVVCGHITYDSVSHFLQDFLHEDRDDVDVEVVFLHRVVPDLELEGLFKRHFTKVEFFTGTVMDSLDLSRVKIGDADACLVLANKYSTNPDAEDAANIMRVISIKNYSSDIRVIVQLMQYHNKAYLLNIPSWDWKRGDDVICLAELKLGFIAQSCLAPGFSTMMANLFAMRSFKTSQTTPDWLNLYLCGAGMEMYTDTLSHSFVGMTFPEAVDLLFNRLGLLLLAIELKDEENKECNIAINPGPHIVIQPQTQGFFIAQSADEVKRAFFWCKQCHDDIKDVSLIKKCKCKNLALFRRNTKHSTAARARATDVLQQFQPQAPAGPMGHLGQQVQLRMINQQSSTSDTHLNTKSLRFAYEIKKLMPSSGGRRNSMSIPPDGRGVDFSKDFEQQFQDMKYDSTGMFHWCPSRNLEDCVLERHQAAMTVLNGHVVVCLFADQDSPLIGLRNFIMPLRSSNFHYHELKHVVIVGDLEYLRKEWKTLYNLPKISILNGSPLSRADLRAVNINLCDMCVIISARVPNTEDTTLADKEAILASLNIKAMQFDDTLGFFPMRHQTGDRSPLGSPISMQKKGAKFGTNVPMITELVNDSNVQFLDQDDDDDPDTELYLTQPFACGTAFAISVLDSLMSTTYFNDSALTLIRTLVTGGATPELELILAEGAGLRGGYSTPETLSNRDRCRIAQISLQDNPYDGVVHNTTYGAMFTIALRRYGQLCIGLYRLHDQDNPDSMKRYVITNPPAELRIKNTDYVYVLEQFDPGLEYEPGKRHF
T1 sequence (Q12791 1-1178 isoform Q12791-5): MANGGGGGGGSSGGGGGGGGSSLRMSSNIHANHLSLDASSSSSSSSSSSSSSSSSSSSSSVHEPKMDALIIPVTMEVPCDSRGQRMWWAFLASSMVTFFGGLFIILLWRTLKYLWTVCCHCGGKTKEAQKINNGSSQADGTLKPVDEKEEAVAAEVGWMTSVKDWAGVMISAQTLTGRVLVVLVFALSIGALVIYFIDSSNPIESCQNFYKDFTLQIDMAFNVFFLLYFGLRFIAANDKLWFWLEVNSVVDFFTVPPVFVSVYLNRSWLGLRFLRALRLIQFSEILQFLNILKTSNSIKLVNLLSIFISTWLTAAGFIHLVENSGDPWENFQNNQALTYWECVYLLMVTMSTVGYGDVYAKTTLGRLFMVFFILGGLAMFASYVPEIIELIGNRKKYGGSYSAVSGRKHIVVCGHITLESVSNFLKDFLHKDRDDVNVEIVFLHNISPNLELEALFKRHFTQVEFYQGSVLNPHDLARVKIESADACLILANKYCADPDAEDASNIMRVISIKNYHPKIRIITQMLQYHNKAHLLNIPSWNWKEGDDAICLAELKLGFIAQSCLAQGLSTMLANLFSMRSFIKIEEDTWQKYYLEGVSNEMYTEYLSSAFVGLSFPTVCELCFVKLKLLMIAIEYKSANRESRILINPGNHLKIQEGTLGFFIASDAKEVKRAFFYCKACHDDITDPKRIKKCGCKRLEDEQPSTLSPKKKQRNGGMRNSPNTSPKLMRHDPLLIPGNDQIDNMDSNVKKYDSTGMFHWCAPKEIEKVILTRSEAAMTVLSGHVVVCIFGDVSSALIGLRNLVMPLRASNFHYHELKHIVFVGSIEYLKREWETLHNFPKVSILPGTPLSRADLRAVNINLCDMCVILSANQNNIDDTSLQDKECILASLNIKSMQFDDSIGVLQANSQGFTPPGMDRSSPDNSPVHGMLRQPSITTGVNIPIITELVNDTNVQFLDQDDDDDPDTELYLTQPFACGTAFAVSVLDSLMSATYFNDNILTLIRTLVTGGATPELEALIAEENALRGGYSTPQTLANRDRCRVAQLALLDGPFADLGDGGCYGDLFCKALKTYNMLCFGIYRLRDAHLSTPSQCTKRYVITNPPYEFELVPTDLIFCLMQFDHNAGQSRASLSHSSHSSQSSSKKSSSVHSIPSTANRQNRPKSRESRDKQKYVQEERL
T1 sequence (Q16558 whole entry partner): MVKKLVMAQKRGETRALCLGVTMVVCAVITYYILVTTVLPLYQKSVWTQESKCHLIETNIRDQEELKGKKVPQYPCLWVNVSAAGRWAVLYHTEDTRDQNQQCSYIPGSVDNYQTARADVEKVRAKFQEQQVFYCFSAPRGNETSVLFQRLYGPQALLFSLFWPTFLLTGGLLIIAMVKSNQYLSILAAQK

In general, EC50 refers to the midpoint of the concentration-response curve. A higher EC50 goes with a less potent agent. `CN(C)c1c(NC(=O)C2CCOc3ccccc32)cnc2c(-c3cccc(Cl)c3Cl)cccc12` (stereo not drawn) [Compound 12]: the EC50 is under 1 µM in assay [1] and over 30 µM in assay [3]. Also, in assay [2], the minimal effective concentration is at most 50 µM.

`COc1c(NC(=O)C2CCCc3ccccc32)cnc2c(-c3cccc(Cl)c3Cl)cccc12` (stereo not drawn) [Compound 14]: the EC50 in assay [1] was under 1 µM; in assay [3], over 30 µM. For the same molecule, in assay [2], the minimal effective concentration is at most 50 µM.

For the molecule `COc1c(NC(=O)C2CCOc3ccccc32)cnc2c(-c3cccc(Cl)c3Cl)cccc12` (stereo not drawn) [Compound 15], the EC50 in assay [1] was under 1 µM; in assay [3] it was over 30 µM. The minimal effective concentration in assay [2] is at most 50 µM.

Take `COc1c(NC(=O)C2CCc3ccccc32)cnc2c(-c3cccc(Cl)c3Cl)cccc12` (stereo not drawn) [Compound 16]: the EC50 was under 1 µM in assay [1] and over 30 µM in assay [3]. In addition, the minimal effective concentration in assay [2] is at most 50 µM.

Take `CC(C(=O)Nc1cnc2c(-c3cccc(Cl)c3Cl)cccc2c1N1CCOCC1)c1ccccc1` (stereo not drawn) [Compound 21]: the EC50 was under 10 µM in assay [1] and over 30 µM in assay [3]. Besides, in assay [2], the minimal effective concentration was at most 50 µM.

For the molecule `CN(C)c1c(NC(=O)Cc2ccc(Cl)cc2)cnc2c(-c3cccc(Cl)c3Cl)cccc12` [Compound 25], the EC50 was under 10 µM in assay [1] and over 30 µM in assay [3]. Further, the minimal effective concentration in assay [4] was at most 50 µM.

On to `Cc1ccc(CC(=O)Nc2cnc3c(-c4cccc(Cl)c4Cl)cccc3c2N(C)C)cc1` [Compound 26], for which the EC50 in assay [1] is under 10 µM; in assay [3] it was over 30 µM. Further, the minimal effective concentration in assay [4] was at most 50 µM.

With `Cc1cccc(CC(=O)Nc2cnc3c(-c4cccc(Cl)c4Cl)cccc3c2N(C)C)c1` [Compound 35], the concentration giving a half-maximal response (EC50) in assay [1] was under 10 µM; in assay [3], over 30 µM. The minimal effective concentration in assay [4] is at most 50 µM.

As to `CN(C)c1c(NC(=O)C2CCOc3ccccc32)cnc2c(-c3cc(F)cc(F)c3)cccc12` (stereo not drawn) [Compound 38], the EC50 in assay [1] was under 10 µM; in assay [3], over 30 µM. The minimal effective concentration in assay [2] was at most 50 µM.

For `CN(C)c1c(NC(=O)C2CCOc3ccccc32)cnc2c(-c3cc(F)c(F)c(F)c3)cccc12` (stereo not drawn) [Compound 39], the EC50 in assay [1] is under 10 µM; in assay [3], over 30 µM. Further, the minimal effective concentration in assay [2] was at most 50 µM.

With `CCOc1c(NC(=O)C2CCc3ccccc32)cnc2c(-c3cccc(Cl)c3Cl)cccc12` (stereo not drawn) [Compound 57, N-(8-(2,3-dichlorophenyl)-4-ethoxyquinolin-3-yl)-2,3-dihydro-1H-indene-1-carboxamide], the EC50 was under 1 µM in assay [1] and over 30 µM in assay [3]. The minimal effective concentration in assay [4] is at most 50 µM.

For the molecule `CN(C)c1c(NC(=O)C2CCOc3ccccc32)cnc2c(-c3cc(Cl)cc(Cl)c3)cccc12` (stereo not drawn) [Compound 67], the EC50 was under 1 µM in assay [1] and over 30 µM in assay [3]. The minimal effective concentration in assay [2] was at most 50 µM.

As to `COc1c(NC(=O)C2CCCc3ccccc32)cnc2c(-c3cc(Cl)cc(Cl)c3)cccc12` (stereo not drawn) [Compound 69], the 50% effective concentration (EC50) is under 1 µM in assay [1] and over 30 µM in assay [3]. Also, the minimal effective concentration in assay [2] is at most 50 µM.

As for `CC(C)Oc1c(NC(=O)C2CCCc3ccccc32)cnc2c(-c3cc(Cl)cc(Cl)c3)cccc12` (stereo not drawn) [Compound 76, N-(8-(3,5-dichlorophenyl)-4-isopropoxyquinolin-3-yl)-1,2,3,4-tetrahydro-naphthalene-1-carboxamide], the minimal effective concentration in assay [2] is at most 50 µM. This molecule also came in with an EC50 in assay [3] of over 30 µM.

As for `CC(C)Oc1c(NC(=O)c2cccc3ccccc23)cnc2c(-c3cc(Cl)cc(Cl)c3)cccc12` [Compound 81], in assay [4], the minimal effective concentration is at most 50 µM. Besides, the EC50 in assay [3] is over 30 µM.

Turning to `Nc1c(NC(=O)C2CCOc3ccccc32)cnc2c(-c3cccc(Cl)c3Cl)cccc12` (stereo not drawn) [Compound 84], the 50% effective concentration (EC50) in assay [1] is under 10 µM; in assay [3] it was over 30 µM. For the same molecule, in assay [2], the minimal effective concentration was at most 50 µM.

As for `CC(C)N(C)c1c(NC(=O)C2CCOc3ccccc32)cnc2c(-c3cccc(Cl)c3Cl)cccc12` (stereo not drawn) [Compound 89], the minimal effective concentration in assay [2] is at most 50 µM. Besides, the EC50 in assay [3] is over 30 µM.

Turning to `CCNc1c(NC(=O)C2CCCc3ccccc32)cnc2c(-c3cccc(Cl)c3Cl)cccc12` (stereo not drawn) [Compound 96], the minimal effective concentration in assay [2] was at most 50 µM. The molecule further registered an EC50 in assay [3] of 10 to 30 µM.

Consider `CN(CCO)c1c(NC(=O)C2CCCc3ccccc32)cnc2c(-c3cccc(Cl)c3Cl)cccc12` (stereo not drawn) [Compound 102], for which the EC50 in assay [1] was under 1 µM; in assay [3], 10 to 30 µM. For the same molecule, the minimal effective concentration in assay [2] was at most 50 µM.

For `CCc1c(NC(=O)c2ccnc3ccccc23)cnc2c(-c3cccc(Cl)c3Cl)cccc12` [Compound 104], the minimal effective concentration in assay [2] is at most 50 µM. Besides, the EC50 in assay [3] was over 30 µM.

With `O=C(Nc1cnc2c(-c3cccc(Cl)c3Cl)cccc2c1O)C1CCOc2ccccc21` (stereo not drawn) [Compound 112], in assay [4], the minimal effective concentration is at most 50 µM. In assay [3], the EC50 is over 30 µM.

Turning to `COc1c(NC(=O)C2CCCc3ccccc32)cnc2c(-c3cc(Cl)cc(Cl)c3)c(F)ccc12` (stereo not drawn) [Compound 113], the EC50 in assay [1] is under 1 µM; in assay [3], over 30 µM. Besides, the minimal effective concentration in assay [2] is at most 50 µM.

For `CCOc1c(NC(=O)C2CCCc3ccccc32)cnc2c(-c3cc(Cl)cc(Cl)c3)c(F)ccc12` (stereo not drawn) [Compound 114], the minimal effective concentration in assay [4] was at most 50 µM. Further, the EC50 in assay [3] is over 30 µM.

Turning to `CN(C)c1c(NC(=O)C2CCCc3ccccc32)cnc2c(-c3cc(Cl)cc(Cl)c3)c(F)ccc12` (stereo not drawn) [Compound 115], the values for the concentration for a half-maximal effect (EC50) in assay [1] and in assay [3] were under 1 µM and over 30 µM, respectively. Moreover, the minimal effective concentration in assay [2] was at most 50 µM.

As to `COc1c(NC(=O)C2CCOc3ccccc32)cnc2c(-c3cc(Cl)cc(Cl)c3)c(F)ccc12` (stereo not drawn) [Compound 123], the EC50 in assay [1] is under 1 µM; in assay [3] it was over 30 µM. Moreover, the minimal effective concentration in assay [2] is at most 50 µM.

For the molecule `O=C(Nc1cnc2c(-c3cc(Cl)cc(Cl)c3)c(F)ccc2c1N1CCOCC1)C1CCc2ccccc21` (stereo not drawn) [Compound 136], the EC50 was under 10 µM in assay [1] and over 30 µM in assay [3]. The minimal effective concentration in assay [2] was at most 50 µM.

For the molecule `CCOc1c(NC(=O)[C@H]2CCCc3ccccc32)cnc2c(-c3cc(Cl)cc(Cl)c3)cccc12` [Compound 154], the figures for the EC50 in assay [1] and in assay [3] were under 1 µM and over 30 µM, respectively. The minimal effective concentration in assay [2] is at most 50 µM.

In the case of `COc1c(NC(=O)[C@H]2CCCc3ccccc32)cnc2c(-c3cc(Cl)cc(Cl)c3)cccc12` [Compound 155], the values for the 50% effective concentration (EC50) in assay [1] and in assay [3] were under 1 µM and over 30 µM, respectively. In addition, the minimal effective concentration in assay [2] was at most 50 µM.

Turning to `COc1c(NC(=O)C2CCOc3ccccc32)cnc2c(-c3cccc(Cl)c3Cl)c(C)ccc12` (stereo not drawn) [Compound 164], the EC50 was under 10 µM in assay [1] and over 30 µM in assay [3]. For the same molecule, in assay [2], the minimal effective concentration is at most 50 µM.

For `CN(C)c1c(NC(=O)[C@H]2CCc3ccccc32)cnc2c(-c3cc(Cl)cc(Cl)c3)c(Cl)ccc12` [Compound 180], the EC50 in assay [1] is under 1 µM; in assay [3], over 30 µM. Besides, in assay [2], the minimal effective concentration is at most 50 µM.

For `Cc1ccc2c(N(C)C)c(NC(=O)[C@H]3CCc4ccccc43)cnc2c1-c1cc(Cl)cc(Cl)c1` [Compound 182], the concentration giving a half-maximal response (EC50) in assay [1] was under 1 µM; in assay [3] it was over 30 µM. For the same molecule, in assay [2], the minimal effective concentration was at most 50 µM.

Regarding `CCc1c(NC(=O)C2CCCc3ccccc32)cnc2c(-c3cc(Cl)cc(Cl)c3)cccc12` (stereo not drawn) [Compound 191], the EC50 in assay [1] is under 1 µM; in assay [3], over 30 µM. In assay [4], the minimal effective concentration is at most 50 µM.

For `Cc1c(NC(=O)C2CCOc3ccccc32)cnc2c(-c3cc(Cl)cc(Cl)c3)cccc12` (stereo not drawn) [Compound 194], the EC50 in assay [1] is under 10 µM; in assay [3], over 30 µM. The minimal effective concentration in assay [2] is at most 50 µM.

`CCc1c(NC(=O)C2CCOc3ccccc32)cnc2c(-c3cc(Cl)cc(Cl)c3)cccc12` (stereo not drawn) [Compound 195]: the EC50 was under 1 µM in assay [1] and over 30 µM in assay [3]. Also, the minimal effective concentration in assay [2] was at most 50 µM.

For the molecule `CCc1c(NC(=O)[C@H]2CCCc3ccccc32)cnc2c(-c3cc(Cl)cc(Cl)c3)cccc12` [Compound 197], the EC50 was under 1 µM in assay [1] and over 30 µM in assay [3]. The minimal effective concentration in assay [2] is at most 50 µM.

As for `Cc1c(NC(=O)c2cccc3ccccc23)cnc2c(-c3cc(Cl)cc(Cl)c3)cccc12` [Compound 198], the minimal effective concentration in assay [2] was at most 50 µM. In assay [3], the 50% effective concentration (EC50) was over 30 µM.

For `CCc1c(NC(=O)c2cccc3ccccc23)cnc2c(-c3cc(Cl)cc(Cl)c3)cccc12` [Compound 199], the values for the EC50 in assay [1] and in assay [3] were under 10 µM and over 30 µM, respectively. The minimal effective concentration in assay [2] was at most 50 µM.

In the case of `C=C(C)c1c(NC(=O)c2cccc3ccccc23)cnc2c(-c3cc(Cl)cc(Cl)c3)cccc12` [Compound 200], in assay [2], the minimal effective concentration is at most 50 µM. In assay [3], this molecule came in with an EC50 of over 30 µM.

With `C=C(C)c1c(NC(=O)C2CCCc3ccccc32)cnc2c(-c3cccc(Cl)c3Cl)cccc12` (stereo not drawn) [Compound 202], the EC50 was under 1 µM in assay [1] and over 30 µM in assay [3]. The minimal effective concentration in assay [4] was at most 50 µM.
